Results: ChEMBL document CHEMBL5523668, “Elongation of N6-benzyladenosine scaffold via Pd-catalyzed C-C bond formation leads to derivatives with antiflaviviral activity” (Bioorg Med Chem, 2024)
Active and inactive are the calls of the source. The calls are words filed in the database; no cut-off is given here.

How the values were obtained:
West Nile virus [1] = assay: Antiviral activity against WNV infected in African green monkey Vero cells assessed as viral growth inhibition pre-infected with virus for 5 hrs followed by compound addition and measured 24 hrs post infection; type: functional, organism-based; conditions: time 19.0 hrs
West Nile virus [2] = assay: Antiviral activity against WNV infected in African green monkey Vero cells assessed as viral growth inhibition pre-infected with virus for 2 hrs followed by compound addition and measured 24 hrs post infection by time of addition assay; type: functional, organism-based; conditions: time 22.0 hrs
[3] = Cytotoxicity against porcine PEK cells assessed as reduction in cell viability after 7 days by resazurin staining based analysis; type: toxicity, Sus scrofa; conditions: pig, time 7 day
[4] = Cytotoxicity against African green monkey Vero cells assessed as reduction in cell viability after 7 days by resazurin staining based analysis; type: toxicity; conditions: chlorocebus sabaeus, time 7 day
West Nile virus [5] = assay: Antiviral activity against WNV infected in African green monkey Vero cells assessed as viral growth inhibition measured after 24 hrs; type: functional, organism-based
West Nile virus [6] = assay: Antiviral activity against WNV infected in African green monkey Vero cells assessed as viral growth inhibition pre-treated with compound for 2 hrs followed by viral infection and measured 24 hrs post infection; type: functional, organism-based; conditions: time 26.0 hrs
Yellow fever virus = assay: Antiviral activity against YFV infected in African green monkey Vero cells assessed as reduction in cytopathic effect by plaque reduction assay; type: functional, organism-based
[7] = tested on: Tick-borne encephalitis virus; assay: Antiviral activity against TBEV infected in porcine PEK cells assessed as reduction in cytopathic effect by plaque reduction assay; type: functional, organism-based
West Nile virus [8] = assay: Antiviral activity against WNV infected in African green monkey Vero cells assessed as viral growth inhibition pre-infected with virus for 2 hrs followed by compound addition and measured after compound washout at 5 hrs post infection; type: functional, organism-based; conditions: time 3.0 hrs
West Nile virus [9] = assay: Antiviral activity against WNV infected in African green monkey Vero cells assessed as reduction in cytopathic effect by plaque reduction assay; type: functional, organism-based
[10] = Selectivity index, ratio of CC50 for human A549 cells to EC50 for TBEV infected in human A549 cells; type: toxicity, cell-based; conditions: read-out: Ratio CC50/EC50
[11] = tested on: Tick-borne encephalitis virus; assay: Antiviral activity against TBEV infected in human A549 cells assessed as inhibition of virus induced cytopathic effect; type: functional, organism-based
West Nile virus [12] = assay: Antiviral activity against WNV NY99 infected in African green monkey Vero cells pretreated with cells for 16 hrs followed by viral infection for 1 hr and measured after 48 hrs by plaque assay; type: functional, organism-based
[13] = tested on: Tick-borne encephalitis virus; assay: Antiviral activity against TBEV infected in human A549 cells assessed as reduction in cytopathic effect pretreated with cells for 1 hr followed by viral infection and measured after 3 days; type: functional, organism-based
Enterovirus A71 = assay: Antiviral activity against human EV71 BrCr infected human RD cells assessed as reduction in cytopathic effect pretreated with cells followed by viral infection and measured after 3 to 4 days post infection; type: functional, organism-based; conditions: Enterovirus A
[14] = Cytotoxicity against human RD cells; type: toxicity, cell-based
[15] = tested on: Tick-borne encephalitis virus; assay: Antiviral activity against TBEV infected in porcine PS cells assessed as r inhibition of virus induced cytopathic effect pretreated with cells for 24 hrs followed by viral infection for 24 hrs and measured after 72 hrs post infection; type: functional, organism-based
[16] = tested on: Tick-borne encephalitis virus; assay: Antiviral activity against TBEV infected in porcine PS cells assessed as inhibition of virus induced cytopathic effect pre-infected with virus followed by compound addition and measured after 3 to 4 days by microscope based analysis; type: functional, organism-based
[17] = Cytotoxicity against African green monkey Vero cells assessed as reduction in cell viability after 24 hrs by resazurin staining based analysis; type: toxicity; conditions: chlorocebus sabaeus
[18] = Cytotoxicity against porcine PEK cells assessed as reduction in cell viability after 24 hrs by resazurin staining based analysis; type: toxicity, Sus scrofa; conditions: pig
[19] = tested on: Tick-borne encephalitis virus; assay: Antiviral activity against TBEV infected in porcine PEK cells pre-infected for 1 hr followed by cell addition for 1 hrs and measured after 6 days; type: functional, organism-based
West Nile virus [20] = assay: Antiviral activity against WNV infected in African green monkey Vero cells; type: functional, organism-based
[21] = tested on: Tick-borne encephalitis virus; assay: Antiviral activity against TBEV infected in porcine PS cells pretreated with cells followed by viral infection and measured after 3 days post infection by microscope based analysis; type: functional, organism-based

Row | Compound | CC50 at 168 h [3] [µM] | CC50 at 168 h [4] [µM] | EC50 (Yellow fever virus) [µM] | EC50 [7] [µM] | EC50 (West Nile virus [9]) [µM] | also measured
1 | OC[C@H]1O[C@@H](n2cnc3c(NCc4ccc(C#CC5=CCCCC5)cc4)ncnc32)[C@H](O)[C@@H]1O | 36.6 | > 50 | 24 | 10 | 5 | Activity (West Nile virus [1]): Active; Activity (West Nile virus [2]): Active; Activity (West Nile virus [5]): inactive; Activity (West Nile virus [6]): inactive; Activity (West Nile virus [8]): inactive
2 | CCC(CC)COC(=O)[C@H](C)N[P@](=O)(OC[C@H]1O[C@@](C#N)(c2ccc3c(N)ncnn23)[C@H](O)[C@@H]1O)Oc1ccccc1 [REMDESIVIR] |  |  |  |  |  | selectivity ratio [10]: 4.8; EC50 ([11]; Tick-borne encephalitis virus, A549): 2.1 µM; EC50 ([11]; a549): 3.5 µM
3 | OC[C@H]1O[C@@H](n2cnc3c(NCc4ccc(C#CC5CC5)cc4)ncnc32)[C@H](O)[C@@H]1O | > 50 | > 50 | > 50 | > 50 | 32 | 
4 | OC[C@H]1O[C@@H](n2cnc3c(NCc4cc(C(F)(F)F)cc(C(F)(F)F)c4)ncnc32)[C@H](O)[C@@H]1O | > 50 | > 50 | > 50 | > 50 | 16 | 
5 | NC(=O)c1nc(F)cnc1O [FAVIPIRAVIR] |  | > 1000 |  |  |  | EC50 (West Nile virus [12]): 94 µM
6 | C#C[C@@]1(O)[C@H](O)[C@@H](CO)O[C@H]1n1ccc2c(N)ncnc21 |  |  |  |  |  | EC50 [13]: 0.2 µM
7 | OC[C@H]1O[C@@H](n2cnc3c(NCc4ccc(C#Cc5cc(C(F)(F)F)cc(C(F)(F)F)c5)cc4)ncnc32)[C@H](O)[C@@H]1O | 8.1 | 15.7 | 5.6 | 2.2 | 1.5 | 
8 | OC[C@H]1O[C@@H](n2cnc3c(NCc4ccc(C#Cc5ccccc5)cc4)ncnc32)[C@H](O)[C@@H]1O | > 50 | > 50 | 33 | 36.6 | 9.7 | 
9 | OC[C@H]1O[C@@H](n2cnc3c(NCc4c(F)cccc4F)ncnc32)[C@H](O)[C@@H]1O |  |  |  |  |  | EC50 (Enterovirus A71): 0.21 µM; CC50 [14]: > 245 µM
10 | Nc1ncnc2c1ncn2[C@@H]1O[C@H](CO)[C@@H](F)[C@H]1O |  |  |  |  |  | EC50 [15]: 1.6 µM
11 | OC[C@H]1O[C@@H](n2cnc3c(NCc4ccc(C(F)(F)F)cc4)ncnc32)[C@H](O)[C@@H]1O | > 50 | > 50 | > 50 | > 50 | 7 | 
12 | C[C@@]1(O)[C@H](O)[C@@H](CO)O[C@H]1n1ccc(N)nc1=O |  |  |  |  |  | EC50 [16]: 14.2 µM
13 | OC[C@H]1O[C@@H](n2cnc3c(NCc4cccc(C(F)(F)F)c4)ncnc32)[C@H](O)[C@@H]1O | > 50 | > 50 | > 50 | > 50 | 8 | CC50 [14]: > 235 µM
14 | OC[C@H]1O[C@@H](n2cnc3c(NCc4ccc(C#CC5CCCC5)cc4)ncnc32)[C@H](O)[C@@H]1O | 37 | 38 | 17.8 | 8 | 18 | 
15 | OC[C@H]1O[C@@H](n2cnc3c(NCc4ccc(-c5cccc(C(F)(F)F)c5)cc4)ncnc32)[C@H](O)[C@@H]1O | 36.7 | > 50 | 31 | 6 | 6.8 | Activity (West Nile virus [1]): Active; CC50 at 24 h [17]: > 50 µM; Activity (West Nile virus [2]): Active; Activity (West Nile virus [5]): inactive; Activity (West Nile virus [6]): inactive; Activity (West Nile virus [8]): inactive; CC50 at 24 h [18]: > 50 µM
16 | Nc1onc(C(=O)OCC23CC4CC(CC(C4)C2)C3)c1CCc1ccccc1 | > 100 | > 100 | 2.2 |  |  | EC50 [19]: 1.8 µM; EC50 (West Nile virus [20]): 1.8 µM
17 | C[C@@]1(O)[C@H](O)[C@@H](CO)O[C@H]1n1ccc2c(N)ncnc21 [BETA-2'-C-METHYL-7-DEAZA-ADENOSINE] |  |  |  |  |  | EC50 [16]: 5.1 µM
18 | C[C@@]1(O)[C@H](O)[C@@H](CO)O[C@H]1n1cnc2c(N)ncnc21 |  |  |  |  |  | EC50 [16]: 7.1 µM
19 | OC[C@H]1O[C@@H](n2cnc3c(NCc4ccccc4C(F)(F)F)ncnc32)[C@H](O)[C@@H]1O | > 50 | > 50 | > 50 | > 50 | 7.7 | 
20 | OC[C@H]1O[C@@H](n2cnc3c(NCc4ccc(-c5ccc(C(F)(F)F)cc5)cc4)ncnc32)[C@H](O)[C@@H]1O | 26 | 28.5 | 27 | 4.7 | 8.3 | 
21 | [N-]=[N+]=N[C@]1(CO)O[C@@H](n2ccc(N)nc2=O)[C@H](O)[C@@H]1O [4'-AZIDOCYTIDINE] |  |  |  |  |  | EC50 [21]: 2.7 µM
22 | OC[C@H]1O[C@@H](n2cnc3c(NCc4ccc(-c5ccccc5)cc4)ncnc32)[C@H](O)[C@@H]1O | > 50 | > 50 | > 50 | > 50 | 13 | CC50 at 24 h [17]: > 50 µM; CC50 at 24 h [18]: > 50 µM
23 | OC[C@H]1O[C@@H](n2cnc3c(NCc4ccc(-c5ccccc5C(F)(F)F)cc4)ncnc32)[C@H](O)[C@@H]1O | > 50 | > 41 | 46 | 17 | 24 | CC50 at 24 h [17]: > 50 µM; CC50 at 24 h [18]: > 50 µM
